Test results reported in patent publication US9765329B2, “Adipocyte-targeting non-viral gene delivery system” (INDUSTRY-UNIVERSITY COOPERATION FOUNDATION HANYANG …, priority 2013, dated 2017).
“Also recorded” adds a separate entry of the source. Square brackets hold non-standard residues; d marks the D form. Ends that are not written are not given here. Peptide text beside a SMILES is read from it.

Experiments:
[1] = test system: 3T3-L1 differentiated adipocytes; assay: In vitro transfection efficiency (luciferase assay); assay type: cell-based; conditions: charge ratio of 5, mature adipocytes at day 10, 72 h
Protocol: A luciferase assay kit was purchased from Promega (USA). A DC protein assay kit and bovine serum albumin standard were purchased from Bio-Rad Laboratories (USA). 3T3-L1 preadipocytes and differentiated adipocytes were seeded in 24 well plates.
Oligo-peptoplexes were prepared by mixing ATS-9R and 2 μg of luciferase plasmid DNA at a charge ratio of 5. R9 and PEI polyplexes were used as controls and prepared at a charge ratio of 5.
The cell lysates were then scraped, harvested, transferred to 1.5 ml microtubes, and centrifuged for 3 min at 13,000 rpm.
The luminescence of the cell lysates was measured on a 96-well plate luminometer (Berthold Detection Systems, Germany) with 20-second integration and expressed as relative luminescence units (RLU)/mg of cell protein. Protein concentration was determined by the DC protein assay kit with bovine serum albumin standard.
Mature adipocytes at day 10 of differentiation were transfected with p-β-Luci by ATS-R9, R9, and PEI at a charge ratio of 5.
To determine an optimum transfection time point, 3T3-L1 differentiated adipocytes were transfected with luciferase plasmid DNA (p-β-Luci) by ATS-R9 and PEI at a charge ratio of 5 at different days of differentiation.

[2] = test system: 3T3-L1 differentiated adipocytes; assay: Internalization of FITC-ATS-R9 into cells (confocal microscopy); assay type: cell-based; conditions: FITC-conjugated ATS-R9 25 μg/ml, adipocytes at day 10
Protocol: (§1) Cellmask Deep Red was purchased from Invitrogen and DAPI-Fluoromount-G was purchased from Southern Biotech. 3T3-L1 preadipocytes, H9c2, and HEK293 cells were grown and differentiated on coverslips placed in 6 well plates.
(§2) After 24 h of seeding, the cells were treated with the FITC conjugated ATS-R9 (25 μg/ml) and incubated in a time-dependent manner that ranged from 15 min to 72 h.
(§3) After incubation, culture media were replaced, and the cells were washed three times with PBS and fixed in 3.7% formaldehyde. The plasma membranes of the cells were stained with Cellmask Deep Red. The cells were washed again with PBS and mounted in the presence of DAPI to stain the nuclei. Images were captured with a Carl Zeiss confocal microscope.
(§4) To monitor the degree of internalization of ATS-R9 into cells, mature adipocytes and preadipocytes were treated with FITC-labeled ATS-R9 (FITC-ATS-R9) and the delivery of the support to the cells was investigated.
3T3-L1 differentiated adipocytes (at day 10) were treated with FITC-conjugated ATS-R9 (25 μg/ml) and incubated for predetermined periods. The plasma membranes of the cells were stained with Cellmask Deep Red and the nuclei were counterstained with DAPI. Blue channel (for DAPI) is depicted as white to show nuclear localization of ATS-R9. Images were captured with a confocal laser scanning microscope. Scale bar: 10 μm.

C57BL/6J obese mice = assay: In vivo internalization into adipose tissue and gene expression
Protocol: FITC-conjugated ATS-R9 was administered to C57BL/6J obese mouse by tail vein injection. Rhodamine-conjugated lectin was injected to stain blood vessels.
FITC-conjugated ATS-R9 was injected into C57BL/6J obese mice and fixed adipose tissue sections were incubated with biotin-conjugated anti-FITC antibody. Cy3-conjugated ExtrAvidin was used for signal amplification thereof. Images were observed using a multiphoton confocal laser scanning microscope.
Finally, in vivo gene expression was confirmed. To this end, red fluorescence protein (RFP) expressing plasmid was concentrated by FITC-ATS-R9 and the oligo-peptoplexes were injected into C57BL/6J obese mice. Non-treated mice were used as controls. Images were observed using a multiphoton confocal laser scanning microscope.

[3] = In vitro cytotoxicity (MTT) assay; assay type: cell-based; conditions: mouse, 3T3-L1 differentiated adipocytes (day 10); adipocytes at day 10, 48 h after transfection, charge ratio up to 9; read-out: cell viability
Protocol: (§5) Cell viability was measured by MTT [3-(4,5-dimethylthiazol-2-yl)-2,5-diphenyltetrazolium bromide]assay.
(§6) 3T3-L1 differentiated adipocytes were incubated in 24-well plates. The adipocytes (at day 10) were treated with oligo-peptoplexes prepared by luciferase plasmid DNA, plain DMEM medium, and ATS-9R at predetermined charge ratios. PEI polyplexes were used as the control.
(§7) After 48 h of transfection, 50 μl of MTT reagent was added to 500 μl medium in each well and incubated for 3 h at 37° C. The culture media were removed and 500 μl dimethyl sulfoxide (DMSO) was added to each well and incubated for 20 min at room temperature. Absorbance was measured at 570 nm.
(§8) 3T3-L1 differentiated adipocytes at day 10 were transfected with the oligo-peptoplexes. After 48 h of transfection, cell viability was analyzed by MTT assay (n=6).

[4] = test system: 3T3-L1 differentiated adipocytes; assay: In vitro cytotoxicity (MTT) assay; assay type: cell-based; conditions: adipocytes at day 10, 48 h after transfection
Protocol: as §5, §6, §7, §8

[5] = test system: luciferase plasmid DNA (p-β-Luci); assay: Gel retardation assay; assay type: physicochemical; conditions: charge ratio of ≧3
Protocol: 1 μg of luciferase plasmid DNA (p-β-Luci, Promega (USA)), deionized water, and ATS-R9 (charge ratios: 0.25, 0.5, 1, 3, 5, 7, and 9) were incubated for 30 min at room temperature to construct oligo-peptoplexes. The oligo-peptoplexes were subjected to electrophoresis under 0.5% TBE buffer solution in 0.8% agarose gel for 25 min (100 V). Naked DNA was used as a control. The DNA condensation efficiency of the ATS-R9 was compared with that of branched PEI (25 KDa, Sigma, USA).
The condensation efficacy of ATS-R9 was compared with that of branched PEI (25 kDa).
Oligo-peptoplexes were prepared with luciferase plasmid DNA (p-β-Luci), deionized water, and ATS-R9 or PEI with predetermined charge ratios and incubated for 30 min at room temperature.

[6] = Zeta potential and size measurement (DLS); assay type: physicochemical
Protocol: 5 μg of luciferase plasmid DNA (p-β-Luci), deionized water, and ATS-R9 (charge ratios: 0.5, 1, 3, 5, 7, and 9) were incubated for 30 min at room temperature to construct oligo-peptoplexes. The mean diameters and surface zeta potentials of the oligo-peptoplexes were measured using DLS equipped with a Zetasizer-Nano ZS (Malvern Instruments, UK).

3T3-L1 preadipocytes [7] = assay: Internalization of FITC-ATS-R9 into cells (confocal microscopy); assay type: cell-based
Protocol: as §1, §2, §3, §4

Fabp4 gene = assay: fabp4 sh-RNA gene silencing (RT-PCR); assay type: cell-based; conditions: 3T3-L1 mature adipocytes, 2 μg of fabp4 sh-RNA
Protocol: First, 3T3-L1 mature adipocytes were transfected with 2 μg of fabp4 sh-RNA by ATS-R9, PEI, and lipofectamine and gene silencing efficiency was measured by RT-PCR. GAPDH was used as an endogenous control. As a result, the Fabp4 gene silencing efficiency was 70% or more (FIG. 15).

[8] = test system: diet-induced obesity (DIO) mice; assay: In vivo fat homing (pCLE, Cellvizio); conditions: FITC-conjugated peptide, tail vein injection, obese mice
Protocol: C57BL/6J mice at 3 weeks of age were purchased from Central Lab Animal Inc. (Korea). For the first two weeks, the mice were fed 50% normal diet and 50% rodent diet with 60 kcal % from fat. […] The mice became obese after week 14 (body weight>45 g).
FITC conjugated ATS-9R (10 mg/ml) and FITC-9R (10 mg/ml) were diluted in PBS to a final concentration of 1.5 mg/ml and 100 μl of peptide was injected into obese mice by tail vein injection. Immediately after injection, peptide localization in vasculatures of different organs was observed by Cellvizio (Mauna Kea Technologies, France).
In this example, in vivo experiments were conducted using diet-induced obesity (DIO) mice. FITC-ATS-R9 was administered to the obese mice by tail vein injection to observe the targeting of the ATS-R9 to adipose tissue. Tracking was visualized using probe-based confocal laser endomicroscopy (pCLE, Cellvizio).

Serum protection assay = assay type: in vitro ADME; conditions: 50% (vol/vol) mouse serum, 2 h at 37° C., optimum charge ratio
Protocol: Oligo-peptoplexes were prepared at predetermined charge ratios, mouse serum was added to the polyplexes at a final concentration of 50% (vol/vol), and the samples were incubated for 2 h at 37° C.
For the decomplexation of DNA from the polyplexes after serum incubation, heparin in phosphate-buffered saline (pH 7.4, 0.5 mol/l NaCl) was added to the samples in the presence of 0.01 mol/l EDTA and incubated for 1 h. The samples were loaded in 0.8% agarose gel.

obese adipocytes = assay: Comparison of gene delivery ability (luciferase gene); assay type: cell-based
Protocol: The ability of ATS-R9 to deliver luciferase gene to obese adipocytes was evaluated. PEI and lipofectamine were used as controls.
Gene delivery efficacies before and after adipocyte differentiation were compared.
Luciferase was used as a gene to be delivered and scrambled ATS was used as a fat-targeting sequence. The ability of (scrambled ATS)-R9 to deliver the gene to obese adipocytes was compared to that of ATS-R9.

3T3-L1 mature adipocytes = assay: Targeting of rhodamine B-labeled ATS depending on degree of differentiation; assay type: cell-based; conditions: RhoB-ATS
Protocol: (§9) To investigate the location and amount of prohibitin expressed depending on the degree of adipocyte differentiation, two types of adipocytes were treated with rhodamine B-labeled ATS (RhoB-ATS).
(§10) Binding of ATS to prohibitin was determined by an immunoprecipitation assay (FIG. 5a) and the distributions of prohibitin in 3T3-L1 preadipocytes and mature adipocytes were confirmed through the staining results (FIGS. 5b and 5c).

3T3-L1 preadipocytes [9] = assay: as above; assay type: cell-based; conditions: RhoB-ATS
Protocol: as §9, §10

prohibitin = target: T1, prohibitin (Mus musculus, UniProt P67778); assay: Binding of ATS to prohibitin (immunoprecipitation assay)
T1 construct: endogenous in cells; host or cells: 3T3-L1 preadipocytes and differentiated mature adipocytes (day 10)
T1 sequence (P67778 1-272): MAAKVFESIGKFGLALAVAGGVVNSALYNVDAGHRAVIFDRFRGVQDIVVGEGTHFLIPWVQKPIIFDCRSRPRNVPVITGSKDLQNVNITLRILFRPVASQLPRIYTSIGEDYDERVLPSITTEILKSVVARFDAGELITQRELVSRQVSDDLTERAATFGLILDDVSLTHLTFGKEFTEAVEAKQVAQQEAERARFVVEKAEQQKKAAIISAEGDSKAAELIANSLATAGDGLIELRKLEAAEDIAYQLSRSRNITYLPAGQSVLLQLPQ
Protocol: as §9, §10

## C[C@H](NC(=O)[C@H](CCCNC(=N)N)NC(=O)CNC(=O)CNC(=O)[C@H](CCCCN)NC(=O)[C@@H](N)CS)C(=O)N[C@@H](CCCCN)C(=O)N[C@@H](CC(=O)O)C(=O)N[C@@H](CCCNC(=N)N)C(=O)N[C@@H](CCCNC(=N)N)C(=O)N[C@@H](CCCNC(=N)N)C(=O)N[C@@H](CCCNC(=N)N)C(=O)N[C@@H](CCCNC(=N)N)C(=O)N[C@@H](CCCNC(=N)N)C(=O)N[C@@H](CCCNC(=N)N)C(=O)N[C@@H](CCCNC(=N)N)C(=O)N[C@@H](CCCNC(=N)N)C(=O)N[C@@H](CS)C(=O)O [ATS-R9] (H-CKGGRAKDRRRRRRRRRC-OH; N-terminus and C-terminus assumed)
[1]
  transfection efficiency (luciferase gene expression): higher transfection efficiency and gene expression efficiency than PEI and R9
[2]
  strong fluorescence signals / steady state maintained: 48 h
  time to reach the cytoplasm: ≤ 15 min
  time to reach the nuclei: ≤ 1 h
C57BL/6J obese mice; tail vein injection, multiphoton confocal microscopy
  internalization into in vivo adipose tissues: penetrated the blood vessels and was gradually internalized into adipocytes
[3]
  viability at 48 h: ≥ 90%
[4]
  toxicity to differentiated adipocytes: non-toxicity
[5]
  DNA condensation (no DNA migration): complete DNA condensation
[6]; ATS-R9 bound to DNA, neutral conditions
  size of condensed DNA complex: ≤ 200 nm
[6]; charge ratio of ≧1 (description)
  zeta potential: positive
3T3-L1 preadipocytes [7]
  migration to the nuclei observed after: > 48 h
Fabp4 gene
  Fabp4 gene silencing efficiency: ≥ 70%
[8]
  aggregation in fat pad vasculatures: aggregated in the fat pad vasculature
  aggregation in the other organs (liver, kidney): no aggregation was observed
  binding to fat pad microvessels: bound to the fat pad microvessels
Serum protection assay
  DNA degradation in serum: protected DNA from degradation
Obese adipocytes; before and after adipocyte differentiation
  gene delivery efficacy as differentiation into obese adipocytes proceeded: increased
Obese adipocytes; luciferase gene, PEI and lipofectamine as controls
  gene delivery efficacy to obese adipocytes: superior to those of the other delivery systems PEI and lipofectamine

## CRRRRRRRRRC (C[dR][dR][dR][dR][dR][dR][dR][dR][dR]C; cysteine pairing not given here) [R9, reference compound]
[8]
  aggregation in fat pad vasculatures: aggregation was not observed in the fat vasculatures
  binding to fat pad microvessels: no binding

## CKGGRAKDC (optionally rhodamine B labeled; Synthetic peptide adipocyte targeting sequence) [ATS, used free or rhodamine B-labeled]
3T3-L1 mature adipocytes
  targeting efficiency / delivery to obese cells after differentiation: effectively delivered; also recorded: very high
3T3-L1 preadipocytes [9]
  targeting efficiency to adipocytes before differentiation: not significantly high
prohibitin
  ability to bind to prohibitin: high ability to bind to prohibitin

## FITC-ATS-R9: FITC conjugated ATS-R9 (CKGGRAKDRRRRRRRRRC), SEQ ID NO: 2 (not fully specified (N-terminus); cysteine pairing not given here; also: FITC conjugated, site not given here)
C57BL/6J obese mice; RFP expressing plasmid concentrated by FITC-ATS-R9
  in vivo RFP gene expression: clearly confirmed
C57BL/6J obese mice; anti-FITC antibody, Cy3-ExtrAvidin
  adipose tissue homing (immunofluorescence assay): confirms the induction
